For data set [1] the following is noted: Crystal; DTA.
Data set [2] can be described thus: Molar enthalpy of transition or fusion. Particulars: Crystal; DSC.

± gives the expanded uncertainty stated by the source.

Regarding `Nc1ccccc1O` [2-hydroxybenzenamine], the Normal melting temperature in data set [1] stood at 175.57 ± 0.93 °C. Further, in data set [2], the “Molar enthalpy of transition or fusion” value stood at 6.39 ± 1.91 kcal/mol.
Taken in the same sequence, the figures for `C[C@]12CCC(=O)C=C1CC[C@@H]1[C@@H]2CC[C@@]2(C)[C@H]1CC[C@]2(C)O` [17-methyltestosterone] were 164.19 ± 0.71 °C and 5.98 ± 1.79 kcal/mol.

The values above are taken from the NIST ThermoML archive (doi:10.1016/j.jct.2011.02.003).
